Test results from patent US10835623B2, “Manganese-based chelate conjugates for molecular MR imaging” (The General Hospital Corporation, priority 2015, dated 2020).

How the values were obtained:
[1] = read-out: Kd for HA; cited from earlier work
[2] = Relaxivity in PBS / Tris buffer / water (Bruker mq60 Minispec); assay type: physicochemical; conditions: 1.41 T, 37° C.
Description: (§1) NMR spectra were recorded on a 500 MHz Varian spectrometer at 25° C. unless otherwise noted. Chemical shifts are reported in δ (ppm). For ^1H and ^13C NMR spectra, the residual solvent peaks were used as internal reference except for ^13C NMR recorded in D2O where dioxane was used as the internal references (Fulmer, Organometallics 2010, 29, 2176.).^1 Relaxivity measurements were performed on a Bruker mq60 Minispec, 1.41 T and 37° C. Longitudinal (T1) relaxation was acquired via an inversion recovery experiment using 10 inversion times of duration ranging between 0.05×T1 and 5×T1; tranverse […] relaxation was measured using a […] spin-echo experiment. Relaxivity (r1,2) was determined from the slope of a plot of 1/T1,2 vs. [Mn] for at least 4 concentrations. The transverse (T2) relaxation times of ^17O were acquired at 11.7 T from the full-width at half-height of the H2^17O signal (Gale, Carvan, J. Am. Chem. Soc. 2013, 135, 18600). ^17O T2 relaxivity (r2^O) was calculated by dividing the Mn-imparted increase in 1/T2 relative to neat H2O (pH 3) by the Mn concentration in mM. 0.7-1.0 mL NMR samples were enriched with a 10 μL of 18% H2^17O.

[3] = tested on: plasma proteins such as serum albumin; experiment: Relaxivity in human blood plasma; assay type: physicochemical; conditions: 1.41 T, 37° C.
Description: as §1
Incorporation of lipophilic functionality into the chelate-metal complexes promotes binding to plasma proteins such as serum albumin. This binding provides a change in relaxivity measured in human blood plasma compared to that measured in PBS. In most cases, a large (40-170%) increase in relaxivity (r1 or r2) is observed (Table 1).

Substance | r1 in PBS [2] [mM⁻¹ s⁻¹] | r1 in human blood plasma [3] [mM⁻¹ s⁻¹] | Kd [1] [nM]
GAHWQFNALTVR | – | – | ~1000
Na[Mn(PyC3A-3-ethyl ester)] [Compound 10] | 2.7 | 5.8 | –
Na[Mn(PyC3A-5-hydrazide)] [Compound 25] | 3.4 | 5.2 | –
Na[Mn(PyC3A-5-hydroxymethyl)] [Compound 7] | 2.1 | 5.7 | –

The next lines start with results.

r1 in PBS [2] [mM⁻¹ s⁻¹] | r1 in human blood plasma [3] [mM⁻¹ s⁻¹] | Substance | Kd [1] [nM]
2.5 | 3.5 | Na[Mn(PyC3A-4-methoxy-3.5-dimethyl) [Compound 13] | –
3.1 | 2.1 | Na[Mn(PyC3A-5-methyl ester)] [Compound 4] | –
